Patent publication US5424311A, “Azaquinoxalines and their use” (Hoeschst Aktiengesellschaft, priority 1992, dated 1995)
Converted amounts (≈) assume the structure as drawn.

Key:
[1] = target: T1, HIV reverse transcriptase (Human immunodeficiency virus type 1 group M subtype B, UniProt P04585); assay: Inhibition of HIV reverse transcriptase (scintillation proximity assay, SPA); assay type: biochemical; conditions: RT-SPA; RT enzyme cloned from HIV in E. coli; 60 min (37° C.)
T1 construct: The RT enzyme (cloned from HIV in E. coli); purchased HT-Biotechnology LTD, Cambridge, UK; host or cells: E. coli
Experimental: Investigation of the substances for inhibition of HIV reverse transcriptase
The reverse transcriptase (RT) activity was determined by means of a scintillation proximity assay (SPA). The reagent kit for the RT-SPA was purchased from Amersham/Buchler (Braunschweig). The RT enzyme (cloned from HIV in E. coli) originated from HT-Biotechnology LTD, Cambridge, UK.
The assay was carried out according to the method manual of the manufacturer Amersham--with the following modifications:
Bovine serum albumin was added to the final concentration of 0.5 mg/ml to the assay buffer.
The assay was carried out in Eppendorf reaction vessels with a volume of 100 μl of mixture.
The RT concentrate from the manufacturer (5000 U/ml) was diluted to an activity of 15 U/ml in tris-HCl buffer 20 mM; pH 7.2; 30% glycerol.
The incubation time for the mixtures was 60 min (37° C.).
After stopping the reaction and "developing" with the bead suspension, 130 μl of mixture were transferred into 4.5 ml of tris-HCl buffer, 10 mM; pH 7.4; 0.15 M NaCl and the tritium activity was measured in a β-counter.
For a preliminary test of the inhibitory activity, the substances were dissolved in DMSO (stock solution c=1 mg/ml) and tested diluted 10^-1, 10^-2, 10^-3 etc. in DMSO.
To determine IC50 values, the inhibitor stock solutions were further diluted in tris-HCl buffer, 50 mM, pH 8 and tested in suitable concentrations.
The concentration appertaining to 50% enzyme inhibition was found from the graph of RT activity against the logarithm of the concentration of the particular test substance.

HIV = assay: Tests on products against HIV in cell culture (T-cell culture assay, giant cell formation in infected lymphocytes); assay type: cell-based; conditions: Human immunodeficiency virus 1, 72 h, lowest product concentration at which no giant cells occurred, 37° C., 3 days
Experimental: Tests on products against HIV in cell culture
RPMI pH 6.8 Complete medium additionally contains 20% fetal calf serum and 40 IU/ml recombinant interleukin 2.
Lymphocytes isolated from fresh donor blood by means of ®Ficoll gradient centrifugation are cultivated in complete medium with the addition of 2 μg/ml phytohemagglutinin (Wellcome) at 37° C. under 5% CO2 for 36 h. The cells are, after addition of 10% DMSO, frozen at a cell density of 5×10^6 and stored in liquid nitrogen. For the test, the cells are thawed, washed in RPMI medium and cultivated in complete medium for 3-4 days.
The test products were dissolved in DMSO and adjusted with complete medium to a concentration of 1 mg/ml. 0.4 ml of medium was placed in 24-well dishes. After addition of 0.1 ml of the dissolved product to the upper row of the dish, a geometric dilution series was produced by transferring 0.1 ml each time. Product-free controls always received 0.4 ml of complete medium with 0.5% DMSO. Lymphocyte cultures with a cell count of 5×10^5 cells/ml were infected by adding 1/50 of the volume of supernatant from HIV-infected lymphocyte cultures. The titer of these culture supernatants was determined by endpoint dilution to be 1-5×10^6 infectious units/mi. After incubation at 37° C. for 30 min, the infected lymphocytes were spun down and taken up again in the same volume of medium. 0.6 ml portions of this cell suspension were placed in all the wells of the assay plate. The mixtures were incubated at 37° C. for 3 days.
The infected cell cultures were examined under the microscope for the presence of giant cells which indicate active virus replication in the culture. The lowest product concentration at which no giant cells occurred was determined as the HIV inhibitory concentration. As a control, the supernatants from the culture plates were examined for the presence of HIV antigen with the aid of an HIV antigen assay in accordance with the information from the manufacturer (Organon).

SMILES	IC50 [1]	MIC (HIV)
C=C(C)OC(=O)N1c2nc(C)ccc2NC(=S)C1C (racemic) [Example 20, (3RS)-4-(Isopropenyloxycarbonyl)-3,6-dimethyl-3,4-dihydro-1,4,5-triazanaphthalene-2(1H)-thione]	3.61 to 36.1 µM	–
C[C@@H]1Nc2nc(Cl)ccc2NC1=O [Example 2, (3S)-6-Chloro-3-methyl-3,4-dihydro-1,4,5-triazanaphthalen-2(1H)-one]	5.06 to 50.6 µM	> 0.8 µg/mL
CC(C)=CCN1c2nc(Cl)ccc2NC(=O)[C@@H]1C [Example 8, (3S)-6-Chloro-3-methyl-4-(3-methyl-2-butenyl)-3,4-dihydro-1,4,5-triazanaphthalen-2(1H)-one]	0.376 to 3.76 µM	0.08 µg/mL (≈ 0.301 µM)
C=C(C)OC(=O)N1C(=O)[C@H](C)N(C(=O)OC(=C)C)c2nc(Cl)ccc21 [Example 10, (3S)-6-Chloro-1,4-his(isopropenyloxycarbonyl)-3-methyl-3,4-dihydro-1,4,5-triazanaphthalen-2(1H)-one]	0.273 to 2.73 µM	1 µg/mL (≈ 2.73 µM)
C[C@H]1C(=O)Nc2ccc(Cl)nc2N1Cc1ccccn1 [Example 11, (3S)-6-Chloro-3-methyl-4-(2-picolyl)-3,4-dihydro-1,4,5-triazanaphthalen-2(1H)-one]	0.346 to 3.46 µM	0.2 µg/mL (≈ 0.693 µM)
CSCC1C(=S)Nc2cccnc2N1C(=O)OC(C)C (stereo not drawn) [Example 37, 4-Isopropoxycarbonyl-3-methylthiomethyl-3,4-dihydro-1,4,5-triazanaphthalene-2(1H)-thione]	0.321 to 3.21 µM	> 1 µg/mL
CC(C)OC(=O)N1c2ncccc2NC(=O)C1CS(C)(=O)=O (stereo not drawn) [Example 41, 3-Methylsulfonylmethyl-4-isopropoxycarbonyl-3,4-dihydro-1,4,5-triazanaphthalen-2(1H)-one]	–	> 2 µg/mL
